# According to US20040198833A1, “Acetylenic sulfonamide derivatives” (priority 2000, published 2004):
smiles,measurement,value
"CC(C)S(=O)(=O)NCC(C)(F)c1ccc(C#CCCCCO)cc1 (stereo not shown) [Example 11, {2-fluoro-2-[4-(6-hydroxyhex-1-ynyl)phenyl]propyl}[(methylethyl)sulfonyl]amine]",melting point,92 to 93 °C
